Reference: paper PMC10709440, “High-throughput ligand profile characterization in novel cell lines expressing seven heterologous insect olfactory receptors for the detection of volatile plant biomarkers” (Scientific Reports, 2023)
Read-outs that look alike come from different tables or passages of the source.

Experiments:
Drosophila OR13a = biological target: T1, Drosophila OR13a (Drosophila melanogaster, UniProt Q9VXL0); test: Calcium ion fluorescence (GCaMP6) assay, OR13a stable HEK293 cell line; format: cell-based; details: for DF norm AVERAGE OR13a: threshold 0.05, below shown as 0; for OR13a response (VUAA1-normalized) at 1 μM / OR13a response (VUAA1-normalized) at 10 μM / OR13a response (VUAA1-normalized) at 100 μM: OR13a cell line
T1 construct: expressed in transfected cells
T1 sequence (Q9VXL0 1-418): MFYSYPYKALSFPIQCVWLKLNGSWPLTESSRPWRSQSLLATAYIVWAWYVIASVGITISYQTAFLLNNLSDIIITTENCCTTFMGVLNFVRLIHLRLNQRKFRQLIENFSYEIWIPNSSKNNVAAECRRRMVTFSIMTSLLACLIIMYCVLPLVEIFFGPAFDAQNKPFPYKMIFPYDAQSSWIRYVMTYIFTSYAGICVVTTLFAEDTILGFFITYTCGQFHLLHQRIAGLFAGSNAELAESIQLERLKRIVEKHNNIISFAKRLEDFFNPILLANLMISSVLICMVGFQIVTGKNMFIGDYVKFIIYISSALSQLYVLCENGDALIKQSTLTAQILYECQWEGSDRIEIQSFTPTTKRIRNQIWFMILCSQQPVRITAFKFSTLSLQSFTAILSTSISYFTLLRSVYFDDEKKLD
T1 sequence (Q9VNB5 1-486 partner): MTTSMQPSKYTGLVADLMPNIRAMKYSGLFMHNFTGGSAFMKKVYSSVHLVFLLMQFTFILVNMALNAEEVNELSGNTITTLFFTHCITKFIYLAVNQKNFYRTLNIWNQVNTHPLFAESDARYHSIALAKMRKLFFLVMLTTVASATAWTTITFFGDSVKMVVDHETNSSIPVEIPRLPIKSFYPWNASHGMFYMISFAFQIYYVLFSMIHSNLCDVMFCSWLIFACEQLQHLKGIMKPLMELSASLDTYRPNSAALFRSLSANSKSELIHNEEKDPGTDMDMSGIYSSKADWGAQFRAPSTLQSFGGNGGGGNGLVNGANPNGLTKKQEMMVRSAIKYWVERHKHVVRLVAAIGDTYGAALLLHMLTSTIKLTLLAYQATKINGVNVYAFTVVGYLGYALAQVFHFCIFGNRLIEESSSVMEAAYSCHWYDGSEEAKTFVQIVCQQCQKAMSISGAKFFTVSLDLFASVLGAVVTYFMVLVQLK
Method in brief: (§1)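 HEK293 lines stably expressing each Drosophila OR with GCaMP6, doxycycline-induced (1 μg/mL) 48 or 72 h. Fluorescence recorded 5 s baseline then 30 s after VOC injection at pH 7.3; ΔF=(FMAX−F0)/F0, normalized to 50 µM VUAA1 response per line, triplicate wells averaged; concentration series 0.01–100 μM.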

Drosophila OR98a = biological target: T2, Drosophila OR98a (Drosophila melanogaster, UniProt Q9VAZ3); test: Calcium ion fluorescence (GCaMP6) assay, OR98a stable HEK293 cell line; format: cell-based; details: for DF norm AVERAGE OR98a: threshold 0.05, below shown as 0; for Average response / OR98a response (VUAA1-normalized) at 1 μM / OR98a response (VUAA1-normalized) at 10 μM / OR98a response (VUAA1-normalized) at 100 μM: OR98a cell line; for Average response: average of biological replicates, fraction of VUAA1 response
T2 construct: expressed in transfected cells
T2 sequence (Q9VAZ3 1-397): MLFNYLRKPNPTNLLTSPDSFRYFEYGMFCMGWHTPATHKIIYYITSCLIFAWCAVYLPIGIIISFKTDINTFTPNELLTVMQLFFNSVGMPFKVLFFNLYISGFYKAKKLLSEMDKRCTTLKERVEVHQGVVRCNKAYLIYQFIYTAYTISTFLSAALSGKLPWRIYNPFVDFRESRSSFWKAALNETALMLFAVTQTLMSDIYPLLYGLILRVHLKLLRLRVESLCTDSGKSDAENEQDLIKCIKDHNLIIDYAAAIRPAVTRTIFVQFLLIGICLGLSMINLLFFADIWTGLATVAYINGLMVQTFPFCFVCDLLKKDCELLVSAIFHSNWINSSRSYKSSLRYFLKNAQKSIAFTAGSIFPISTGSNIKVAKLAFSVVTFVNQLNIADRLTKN
T2 sequence (Q9VNB5 1-486 partner): T1 sequence (Q9VNB5 1-486 partner)
Method in brief: as §1

[1] = HEK293, read-out: OR13a Average response (VUAA1-normalized), 1 μM VOC, 50 μM VUAA1 = 1, responses not exceeding 0.05 considered 0
[2] = HEK293, read-out: OR13a Average response (VUAA1-normalized), 10 μM VOC, 50 μM VUAA1 = 1, responses not exceeding 0.05 considered 0
[3] = HEK293, read-out: OR13a Average response (VUAA1-normalized), 100 μM VOC, 50 μM VUAA1 = 1, responses not exceeding 0.05 considered 0
[4] = HEK293, read-out: OR13a response (VUAA1-normalized response), VOC concentration 1 μM
[5] = HEK293, read-out: OR13a response (VUAA1-normalized response), VOC concentration 10 μM
[6] = HEK293, read-out: OR13a response (VUAA1-normalized response), VOC concentration 100 μM
[7] = ligand concentration 1 (unit not given)
[8] = ligand concentration 10 (unit not given)
[9] = ligand concentration 100 (unit not given)
[10] = HEK293, read-out: Average response
[11] = HEK293, read-out: OR98a response (VUAA1-normalized response)
[12] = HEK293, read-out: OR98a Average response (VUAA1-normalized)

| SMILES | activation at 1 µM (Drosophila OR13a; [1]) | activation at 10 µM (Drosophila OR13a; [2]) | activation at 100 µM (Drosophila OR13a; [3]) | activation at 1 µM (Drosophila OR13a; [4]) | activation at 10 µM (Drosophila OR13a; [5]) | DF norm AVERAGE OR13a (Drosophila OR13a; [7]) | DF norm AVERAGE OR13a (Drosophila OR13a; [8]) | DF norm AVERAGE OR13a (Drosophila OR13a; [9]) | activation at 1 µM (Drosophila OR98a; [10]) | activation at 10 µM (Drosophila OR98a; [10]) | activation at 100 µM (Drosophila OR98a; [10]) | DF norm AVERAGE OR98a (Drosophila OR98a; [7]) | DF norm AVERAGE OR98a (Drosophila OR98a; [8]) | DF norm AVERAGE OR98a (Drosophila OR98a; [9]) | OR13a response (VUAA1-normalized) at 1 μM (Drosophila OR13a; VOC concentration 1 μM) | OR13a response (VUAA1-normalized) at 10 μM (Drosophila OR13a; VOC concentration 10 μM) | OR13a response (VUAA1-normalized) at 100 μM (Drosophila OR13a; VOC concentration 100 μM) | OR98a response (VUAA1-normalized) at 1 μM (Drosophila OR98a; VOC concentration 1 μM) | OR98a response (VUAA1-normalized) at 10 μM (Drosophila OR98a; VOC concentration 10 μM) | OR98a response (VUAA1-normalized) at 100 μM (Drosophila OR98a; VOC concentration 100 μM) | further results |
| --- | --- | --- | --- | --- | --- | --- | --- | --- | --- | --- | --- | --- | --- | --- | --- | --- | --- | --- | --- | --- | --- |
| C=CCc1ccc(O)c(OC)c1 [eugenol] | 0% | 0% | 0% | 0% | 0% | 0 | 0 | 0 | 3.37% | 0% | 0% | 0 | 0 | 0 | – | – | – | – | – | – | activation at 100 µM (Drosophila OR13a; [6]): 0%; activation at 1 µM (Drosophila OR98a; [11]): 0%; activation at 10 µM (Drosophila OR98a; [11]): 0%; activation at 100 µM (Drosophila OR98a; [11]): 0% |
| CC(=O)OCC(C)C [isobutyl acetate] | 2% | 7% | 3.7% | 0% | 7% | 0 | 0.06695 | 0 | 1.85% | 0% | 6.56% | 0 | 0 | 0.0656 | – | – | – | – | – | – | activation at 100 µM (Drosophila OR13a; [6]): 0%; activation at 1 µM (Drosophila OR98a; [11]): 0%; activation at 10 µM (Drosophila OR98a; [11]): 0%; activation at 100 µM (Drosophila OR98a; [11]): 6.56% |
| CC(=O)OCCC(C)C [isopentyl acetate] | 3% | 4% | 0% | 0% | 0% | 0 | 0 | 0 | 2.74% | 2.22% | 31% | 0 | 0 | 0.3069 | – | – | – | – | – | – | activation at 100 µM (Drosophila OR13a; [6]): 0%; activation at 1 µM (Drosophila OR98a; [12]): 3%; activation at 10 µM (Drosophila OR98a; [12]): 2%; activation at 100 µM (Drosophila OR98a; [12]): 31%; activation at 1 µM (Drosophila OR98a; [11]): 0%; activation at 10 µM (Drosophila OR98a; [11]): 0%; activation at 100 µM (Drosophila OR98a; [11]): 31% |
| C=C(C)[C@H]1CC=C(C)CC1 [limonene] | – | – | – | – | – | 0 | 0 | 0 | – | – | – | 0 | 0 | 0 | – | – | – | – | – | – | OR13a Average response (VUAA1-normalized) (Drosophila OR13a; 1 μM VOC, 50 μM VUAA1 = 1, responses not exceeding 0.05 considered 0): 0.00; OR13a Average response (VUAA1-normalized) (Drosophila OR13a; 10 μM VOC, 50 μM VUAA1 = 1, responses not exceeding 0.05 considered 0): 0.00; OR13a Average response (VUAA1-normalized) (Drosophila OR13a; 100 μM VOC, 50 μM VUAA1 = 1, responses not exceeding 0.05 considered 0): 0.00; OR13a response (VUAA1-normalized response) (Drosophila OR13a; VOC concentration 1 μM): 0.00; OR13a response (VUAA1-normalized response) (Drosophila OR13a; VOC concentration 10 μM): 0.00; OR13a response (VUAA1-normalized response) (Drosophila OR13a; VOC concentration 100 μM): 0.00; OR98a response (VUAA1-normalized response) (Drosophila OR98a; VOC concentration 1 μM): 0.00; OR98a response (VUAA1-normalized response) (Drosophila OR98a; VOC concentration 10 μM): 0.00; OR98a response (VUAA1-normalized response) (Drosophila OR98a; VOC concentration 100 μM): 0.00; Average response (Drosophila OR98a; cc. 1 µM): 0.00; Average response (Drosophila OR98a; cc. 10 µM): 0.02; Average response (Drosophila OR98a; cc. 100 µM): 0.0268 |
| C=CC(C)(O)CCC=C(C)C (stereo not drawn) [linalool] | 1.21% | 4.47% | 0% | – | – | 0 | 0 | 0 | 0% | 0% | 4% | 0 | 0 | 0 | 0.00 | 0.00 | 0.00 | 0.00 | 0.00 | 0.00 | – |
| Cc1cccc(C)c1 [m-xylene] | 0% | 0% | 4% | – | – | 0 | 0 | 0 | 0% | 0% | 2.54% | 0 | 0 | 0 | 0.00 | 0.00 | 0.00 | 0.00 | 0.00 | 0.00 | – |
| COC(=O)c1ccccc1 [methyl benzoate] | 0% | 0% | 6% | – | – | 0 | 0 | 0.06097 | 7.5% | 0% | 12% | 0.07495 | 0 | 0.1166 | 0.00 | 0.00 | 0.06 | 0.075 | 0.00 | 0.12 | activation at 1 µM (Drosophila OR98a; [12]): 7%; activation at 10 µM (Drosophila OR98a; [12]): 0%; activation at 100 µM (Drosophila OR98a; [12]): 12% |
| COC(=O)c1ccccc1O [methyl salicylate] | 0% | 1% | 21% | – | – | 0 | 0 | 0.213 | 3% | 1.79% | 4% | 0 | 0 | 0 | 0.00 | 0.00 | 0.21 | 0.00 | 0.00 | 0.00 | – |
| CCCCCCCCC=O [nonanal] | 0% | 0% | 0% | – | – | 0 | 0 | 0 | 0% | 0% | 5.5% | 0 | 0 | 0.05502 | 0.00 | 0.00 | 0.00 | 0.00 | 0.00 | 0.055 | – |
